The results in this text go back to ChEMBL document CHEMBL4814035, “Structure-activity relationship studies of 3-substituted pyrazoles as novel allosteric inhibitors of MALT1 protease” (Bioorg Med Chem Lett, 2021).

For data set [1], the target named is T1, Mucosa-associated lymphoid tissue lymphoma translocation protein 1 (Homo sapiens, UniProt Q9UDY8).
T1 sequence (Q9UDY8 whole entry): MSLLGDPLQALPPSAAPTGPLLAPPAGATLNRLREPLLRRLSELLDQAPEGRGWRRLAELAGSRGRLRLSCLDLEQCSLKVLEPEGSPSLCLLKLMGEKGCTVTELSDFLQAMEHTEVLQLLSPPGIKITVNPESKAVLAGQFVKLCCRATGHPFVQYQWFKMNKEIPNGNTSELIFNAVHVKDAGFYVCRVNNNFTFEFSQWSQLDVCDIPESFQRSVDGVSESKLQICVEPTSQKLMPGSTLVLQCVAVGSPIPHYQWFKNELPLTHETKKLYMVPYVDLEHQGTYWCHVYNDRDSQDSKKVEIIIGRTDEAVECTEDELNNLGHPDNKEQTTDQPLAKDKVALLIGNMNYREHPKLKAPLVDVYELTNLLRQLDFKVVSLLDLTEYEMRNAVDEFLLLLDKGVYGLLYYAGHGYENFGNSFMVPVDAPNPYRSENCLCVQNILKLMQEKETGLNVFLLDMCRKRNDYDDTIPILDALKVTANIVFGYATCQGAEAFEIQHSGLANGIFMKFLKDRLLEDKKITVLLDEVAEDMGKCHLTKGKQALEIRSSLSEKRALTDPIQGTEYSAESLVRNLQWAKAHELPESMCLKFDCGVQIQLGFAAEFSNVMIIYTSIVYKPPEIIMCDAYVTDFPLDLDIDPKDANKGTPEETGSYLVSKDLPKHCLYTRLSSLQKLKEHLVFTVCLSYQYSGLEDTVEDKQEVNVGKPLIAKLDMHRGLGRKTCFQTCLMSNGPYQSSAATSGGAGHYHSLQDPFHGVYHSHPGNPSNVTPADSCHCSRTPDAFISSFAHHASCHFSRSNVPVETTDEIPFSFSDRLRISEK
The experiment in a line: Inhibition of MALT1 (unknown origin).

In data set [2] the target is T2, Mucosa-associated lymphoid tissue lymphoma translocation protein 1 (Homo sapiens) (UniProt Q9UDY8).
T2 sequence (whole entry): T1 sequence (Q9UDY8 whole entry)
Description: Inhibition of MALT1 (unknown origin) at 25 uM relative to control.

The target of data set [3] is Nuclear factor NF-kappa-B complex (Homo sapiens, UniProt P19838+Q00653+Q04206). Description: Inhibition of NF-kappaB (unknown origin). It is filed as protein-complex assay.
Nuclear factor NF-kappa-B complex, sequence (P19838 1-433 limits assumed): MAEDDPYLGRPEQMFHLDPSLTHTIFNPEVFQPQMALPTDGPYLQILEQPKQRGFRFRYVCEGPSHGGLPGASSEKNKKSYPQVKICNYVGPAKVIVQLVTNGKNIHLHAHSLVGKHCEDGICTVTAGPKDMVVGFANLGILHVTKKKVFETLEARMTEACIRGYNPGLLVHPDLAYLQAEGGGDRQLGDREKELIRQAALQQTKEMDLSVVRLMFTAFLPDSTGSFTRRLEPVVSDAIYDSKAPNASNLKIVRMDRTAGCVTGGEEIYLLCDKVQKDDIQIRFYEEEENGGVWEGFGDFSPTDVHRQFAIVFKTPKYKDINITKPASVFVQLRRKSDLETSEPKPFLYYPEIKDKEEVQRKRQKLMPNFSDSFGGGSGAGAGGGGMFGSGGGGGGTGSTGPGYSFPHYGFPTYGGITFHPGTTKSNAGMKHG
Nuclear factor NF-kappa-B complex, sequence (Q00653 1-454 limits assumed): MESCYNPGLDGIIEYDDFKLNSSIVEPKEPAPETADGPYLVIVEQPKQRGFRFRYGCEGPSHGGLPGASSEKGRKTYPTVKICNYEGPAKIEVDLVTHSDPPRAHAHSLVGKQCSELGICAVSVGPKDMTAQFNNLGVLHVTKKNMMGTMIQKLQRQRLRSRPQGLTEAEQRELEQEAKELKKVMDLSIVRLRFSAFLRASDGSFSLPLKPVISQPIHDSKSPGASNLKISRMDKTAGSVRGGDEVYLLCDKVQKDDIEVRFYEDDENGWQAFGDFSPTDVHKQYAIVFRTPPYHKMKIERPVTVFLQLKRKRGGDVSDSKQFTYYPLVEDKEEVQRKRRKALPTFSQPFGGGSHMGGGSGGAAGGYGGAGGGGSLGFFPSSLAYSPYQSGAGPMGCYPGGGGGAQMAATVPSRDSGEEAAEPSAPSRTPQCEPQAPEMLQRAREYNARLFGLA
Nuclear factor NF-kappa-B complex, sequence (Q04206 whole entry): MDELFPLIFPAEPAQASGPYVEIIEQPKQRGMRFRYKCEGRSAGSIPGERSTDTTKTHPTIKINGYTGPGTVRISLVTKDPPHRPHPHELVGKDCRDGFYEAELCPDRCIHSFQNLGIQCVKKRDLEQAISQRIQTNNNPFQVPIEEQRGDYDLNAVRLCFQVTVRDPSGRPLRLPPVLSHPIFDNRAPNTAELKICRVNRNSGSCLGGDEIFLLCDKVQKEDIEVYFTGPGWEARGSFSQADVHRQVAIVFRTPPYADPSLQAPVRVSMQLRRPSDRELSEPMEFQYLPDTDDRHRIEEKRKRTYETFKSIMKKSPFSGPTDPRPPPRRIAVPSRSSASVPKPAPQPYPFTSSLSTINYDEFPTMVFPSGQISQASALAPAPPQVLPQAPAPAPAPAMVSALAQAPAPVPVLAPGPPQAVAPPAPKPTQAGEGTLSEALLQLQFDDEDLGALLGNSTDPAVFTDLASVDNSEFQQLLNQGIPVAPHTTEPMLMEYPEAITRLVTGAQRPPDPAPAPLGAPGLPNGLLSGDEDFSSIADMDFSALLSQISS
Substrate in data set [4]: CN(C)CCNC(=O)c1cc(-c2ccc(Cl)cc2)n(-c2ccc(Cl)cc2)n1
Description: Non-competitive inhibition of MALT1 (unknown origin) assessed as Michaelis-constant at 0.5 uM by Michaelis-Menten analysis (Rvb = 246.9 microM)
The conditions noted are these: Homo sapiens; dose 0.5 µM.

As to `CN1CCCCC1CNC(=O)c1cc(-c2ccc(Cl)cc2)n(-c2ccc(Cl)cc2)n1` (stereo unspecified), in data set [1], the concentration for half-maximal inhibition (IC50) is 0.521 µM. That is a sub-micromolar value. Same read-out and setting: in the case of `O=C(c1cc(-c2ccc(Cl)cc2)n(-c2ccc(Cl)cc2)n1)N1CCCC1` it was more than 25 µM.

Consider `CNC(=O)c1cc(-c2ccc(CO)cc2)n(-c2ccc(Cl)cc2)n1`, for which the IC50 in data set [1] was more than 25 µM. Further, in data set [2], the inhibition was found to be 19%. The like results for `CNC(=O)c1cc(-c2ccc(Cl)cc2)n(-c2ccccc2Cl)n1` were, in that order, more than 25 µM and 46%. In the same order, the values of `CNC(=O)c1cc(-c2ccc(OC(F)(F)F)cc2)n(-c2ccc(Cl)cc2)n1` are more than 25 µM and 38%. With `CSc1ccc2c(c1)N(CCC1CCCCN1C)c1ccccc1S2` (stereo unspecified) [THIORIDAZINE], it took 3.43 µM to reach half-maximal inhibition in data set [1] (IC50).

Regarding `CNC(=O)c1cc(-c2ccc(F)cc2)n(-c2ccc(Cl)cc2)n1`, the IC50 in data set [1] was more than 25 µM. In addition, the inhibition in data set [2] worked out at 47%. Regarding `O=C(NCCCO)c1cc(-c2ccc(Cl)cc2)n(-c2ccc(Cl)cc2)n1`, the IC50 in data set [1] was determined as 12.4 µM. As to `CN(C)C1CCN(C(=O)c2cc(-c3ccc(Cl)cc3)n(-c3ccc(Cl)cc3)n2)C1` (stereo unspecified), the IC50 in data set [1] is 10.6 µM. Same read-out and setting: in the case of `CS(=O)(=O)NCCNC(=O)c1cc(-c2ccc(Cl)cc2)n(-c2ccc(Cl)cc2)n1` it was 4.37 µM.

In the case of `CNC(=O)c1cc(-c2ccc(Cl)cc2)n(C2CCCCC2)n1`, in data set [2], the inhibition came to 63%. As to `CN(C)CCCNC(=O)c1cc(-c2ccc(Cl)cc2)n(-c2ccc(Cl)cc2)n1`, 2.63 µM corresponded to half-maximal inhibition in data set [1] (IC50). Molecule `CNC(=O)c1cc(-c2ccccc2Cl)n(-c2ccc(Cl)cc2)n1` registered an IC50 in data set [1] of more than 25 µM. The molecule also came in with an inhibition in data set [2] of 23%. For the molecule `CNC(=O)c1cc(-c2ccco2)n(-c2ccc(Cl)cc2)n1`, in data set [1], the 50% inhibitory concentration (IC50) is more than 25 µM. Further, in data set [2], the inhibition is 20%. Regarding `CN(C)C(=O)c1cc(-c2ccc(Cl)cc2)n(-c2ccc(Cl)cc2)n1`, in data set [1], the IC50 was found to be 21.2 µM. In data set [2], `CNC(=O)c1cc(-c2ccc(Cl)cc2)n(-c2cccc(Cl)c2)n1` gave an inhibition of 57%. `CN(C)CCCCNC(=O)c1cc(-c2ccc(Cl)cc2)n(-c2ccc(Cl)cc2)n1` had an IC50 in data set [1] of 2.22 µM. In data set [1], `CNCCNC(=O)c1cc(-c2ccc(Cl)cc2)n(-c2ccc(Cl)cc2)n1` yielded an IC50 of 0.8 µM. This IC50 is about 2.8-fold lower than that of the molecule before.

`CNC(=O)c1cc(-c2ccccc2)n(-c2ccc(Cl)cc2)n1` displayed an IC50 in data set [1] of 16.8 µM. Further, the inhibition in data set [2] worked out at 61%. `CNC(=O)c1cc(-c2cccc(Cl)c2)n(-c2ccc(Cl)cc2)n1`: in data set [1], the IC50 is more than 25 µM. Moreover, the inhibition in data set [2] was 43%. For the molecule `CNC(=O)c1cc(-c2ccc(Cl)cc2)n(-c2ccc(Cl)cc2)n1`, the figures for the IC50 in data set [1] and in data set [3] were 7.01 µM and 9.34 µM, respectively. The molecule also showed an inhibition in data set [2] of 72%. In the case of `CN1CCOC[C@H]1CNC(=O)c1cc(-c2ccc(Cl)cc2)n(-c2ccc(Cl)cc2)n1`, the IC50 in data set [1] stood at 2.01 µM. In data set [1], `CC(=O)NCCNC(=O)c1cc(-c2ccc(Cl)cc2)n(-c2ccc(Cl)cc2)n1` came in with an IC50 of 3.3 µM.

Regarding `CNC(=O)c1cc(-c2ccc(Cl)cc2)n(-c2ccccc2)n1`, it took 19.8 µM to reach half-maximal inhibition in data set [1] (IC50). The molecule further gave an inhibition in data set [2] of 59%.

As for `NC(=O)CCNC(=O)c1cc(-c2ccc(Cl)cc2)n(-c2ccc(Cl)cc2)n1`, the IC50 in data set [1] worked out at 13.4 µM. As to `CCN1CCC[C@@H]1CNC(=O)c1cc(-c2ccc(Cl)cc2)n(-c2ccc(Cl)cc2)n1`, it took 2.1 µM to reach half-maximal inhibition in data set [1] (IC50). This IC50 is about 6.4-fold lower than that of the molecule before.

`O=C(NCCO)c1cc(-c2ccc(Cl)cc2)n(-c2ccc(Cl)cc2)n1` registered an IC50 in data set [1] of 6.55 µM. `CNC(=O)c1cc(-c2ccc(C(F)(F)F)cc2)n(-c2ccc(Cl)cc2)n1`: the IC50 in data set [1] is more than 25 µM. The molecule further had an inhibition in data set [2] of 47%. `NCCNC(=O)c1cc(-c2ccc(Cl)cc2)n(-c2ccc(Cl)cc2)n1` displayed an IC50 in data set [1] of 1.98 µM. The molecule `CNC(=O)c1cc(-c2ccoc2)n(-c2ccc(Cl)cc2)n1` yielded an IC50 in data set [1] of more than 25 µM. In data set [2], this molecule displayed an inhibition of 16%. Consider `CN1CCC(O)CC1CNC(=O)c1cc(-c2ccc(Cl)cc2)n(-c2ccc(Cl)cc2)n1` (stereo unspecified), for which, in data set [1], the IC50 stood at 0.993 µM. In other words, the sub-micromolar range.

With `O=C(NCC1CCCCC1)c1cc(-c2ccc(Cl)cc2)n(-c2ccc(Cl)cc2)n1`, in data set [1], the IC50 is more than 25 µM.

For `CN(C)CCNC(=O)c1cc(-c2ccc(Cl)cc2)n(-c2ccc(Cl)cc2)n1`, the IC50 in data set [1] is 0.49 µM; in data set [3] it was 5.41 µM. For `CNC(=O)c1cc(-c2ccc(C#N)cc2)n(-c2ccc(Cl)cc2)n1`, the IC50 in data set [1] was more than 25 µM. Further, the inhibition in data set [2] worked out at 31%. The molecule `CNC(=O)c1cc(-c2ccc(OC)cc2)n(-c2ccc(Cl)cc2)n1` displayed an IC50 in data set [1] of 6.55 µM. For the same molecule, the inhibition in data set [2] was 80%. The molecule `CN1CCCC(NC(=O)c2cc(-c3ccc(Cl)cc3)n(-c3ccc(Cl)cc3)n2)C1` (stereo unspecified) registered a concentration for half-maximal inhibition (IC50) in data set [1] of 1.7 µM. This lies in the single-digit micromolar range. Turning to `O=C(NCCc1ccccc1)c1cc(-c2ccc(Cl)cc2)n(-c2ccc(Cl)cc2)n1`, in data set [1], the half-maximal inhibitory concentration (IC50) was more than 25 µM.

Consider `CNC(=O)c1cc(-c2ccc(Cl)cc2)n(Cc2ccccc2)n1`, for which half-maximal inhibition in data set [1] (IC50) required 16.3 µM. The molecule also yielded an inhibition in data set [2] of 57%. Molecule `O=C(NCC1COCCN1)c1cc(-c2ccc(Cl)cc2)n(-c2ccc(Cl)cc2)n1` (stereo unspecified) gave an IC50 in data set [1] of 0.819 µM. That is a sub-micromolar value. `NCCCNC(=O)c1cc(-c2ccc(Cl)cc2)n(-c2ccc(Cl)cc2)n1` gave an IC50 in data set [1] of 7.39 µM. This IC50 lies about 9-fold higher than the previous one. For the molecule `CNC(=O)c1cc(-c2ccc(S(C)(=O)=O)cc2)n(-c2ccc(Cl)cc2)n1`, the IC50 in data set [1] is more than 25 µM. This molecule also gave an inhibition in data set [2] of 5.7%. The like results for `CNC(=O)c1cc(-c2ccc(Cl)cc2)n(C)n1` were, in that order, more than 25 µM and 7.7%. In the same order, the values of `CNC(=O)c1cc(-c2ccsc2)n(-c2ccc(Cl)cc2)n1` are more than 25 µM and 26%. The molecule `CNC(=O)c1cc(-c2ccc(OC)nc2)n(-c2ccc(Cl)cc2)n1` gave an IC50 in data set [1] of more than 25 µM. For the same molecule, the inhibition in data set [2] was determined as 21%.

B1: Mucosa-associated lymphoid tissue lymphoma translocation protein 1 (Homo sapiens), Q9UDY8 (protein)
chain: T1 sequence (Q9UDY8 whole entry)
For the molecule B1, in data set [4], the Km came to 234 µM.

Usually IC50 stands for the concentration at which inhibition is half-maximal. Broadly, the inhibition is the relative decrease from the control value, in per cent. A higher inhibition goes with a strong effect. Broadly, the Km is the substrate concentration at which the rate is half of its maximum.
